The values that follow come from ChEMBL document CHEMBL1201862, “PubChem BioAssay data set” (2004).

The target in series [1] is Dual specificity tyrosine-phosphorylation-regulated kinase 1A (Rattus norvegicus, UniProt Q63470). The series is classed as biochemical, Homo sapiens.
Series [2] has as its system HEK293. Briefly: optical interference in Abeta FP readout, dose response, artefact control for IDE activator project, biochemical, fluorescence polarization (AID 588442). The series is classed as functional, cell-based. Conditions: Homo sapiens. In general terms: Fluorescence polarisation rises when a labelled molecule tumbles more slowly, as on binding a larger partner.

The target in series [3] is ORF 73 (Human herpesvirus 8, UniProt O40947). The series is described as follows: inhibitors of C-LANA binding to LBS DNA, dose response, biochemical, fluorescence polarization, cherry-picked samples (AID 504725).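 Note: fluorescence polarization of a labeled DNA duplex reporting LANA DNA binding; potency is for inhibitors that block LANA binding to the DNA.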 Set-up: species or system Human gammaherpesvirus 8.
The target in series [4] is T1, Insulin-degrading enzyme (Homo sapiens, UniProt P14735).
T1 sequence (P14735 whole entry): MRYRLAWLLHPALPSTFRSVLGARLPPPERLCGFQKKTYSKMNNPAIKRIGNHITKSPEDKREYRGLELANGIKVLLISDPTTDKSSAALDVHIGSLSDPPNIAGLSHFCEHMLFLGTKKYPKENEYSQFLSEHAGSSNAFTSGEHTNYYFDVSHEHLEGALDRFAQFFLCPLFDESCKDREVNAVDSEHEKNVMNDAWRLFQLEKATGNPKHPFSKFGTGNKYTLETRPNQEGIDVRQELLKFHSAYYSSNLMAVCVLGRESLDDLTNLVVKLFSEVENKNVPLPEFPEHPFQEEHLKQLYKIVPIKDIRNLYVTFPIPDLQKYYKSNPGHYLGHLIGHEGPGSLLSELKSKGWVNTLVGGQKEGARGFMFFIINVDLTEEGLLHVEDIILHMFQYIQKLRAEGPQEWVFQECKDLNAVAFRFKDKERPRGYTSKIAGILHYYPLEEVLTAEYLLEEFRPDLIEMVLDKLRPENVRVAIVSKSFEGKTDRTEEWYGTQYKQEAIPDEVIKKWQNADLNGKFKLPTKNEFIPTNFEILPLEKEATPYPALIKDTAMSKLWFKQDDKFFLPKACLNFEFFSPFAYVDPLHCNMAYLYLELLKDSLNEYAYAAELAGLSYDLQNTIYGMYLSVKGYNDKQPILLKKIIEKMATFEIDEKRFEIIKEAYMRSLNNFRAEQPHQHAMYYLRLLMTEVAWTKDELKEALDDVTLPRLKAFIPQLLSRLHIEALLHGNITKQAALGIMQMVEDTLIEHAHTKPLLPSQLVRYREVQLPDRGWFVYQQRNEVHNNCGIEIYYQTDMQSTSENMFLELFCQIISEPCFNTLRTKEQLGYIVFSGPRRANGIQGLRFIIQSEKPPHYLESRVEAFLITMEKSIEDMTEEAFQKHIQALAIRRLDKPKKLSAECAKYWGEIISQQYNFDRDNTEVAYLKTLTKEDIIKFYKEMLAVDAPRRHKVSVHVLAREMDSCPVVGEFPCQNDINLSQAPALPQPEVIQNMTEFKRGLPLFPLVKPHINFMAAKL
The series is described as follows: activators of recombinant IDE enzyme, dose response, counter-screen for IDE activator project, biochemical, fluorescence polarization (AID 588681).

Series [5] has as its system HEK293. The series is described as follows: HEK cell cytotoxicity by LDH release, dose response, cytotoxicity control for IDE activator project, fluorescence, HEK cells (AID 588440).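 Note: cytotoxicity by LDH release measuring loss of membrane integrity.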 The class given is functional, cell-based. Conditions: Homo sapiens. On the technique in general: Release of lactate dehydrogenase indicates damage to the cell membrane.
Series [6] addresses T1, Insulin-degrading enzyme. Briefly: activators of endogenous IDE in HEK cells, dose response, cell-based, fluorescence polarization (AID 588439). The class given is functional.
In series [7] the test system is HeLa. The series is described as follows: HeLa cell cytotoxicity, dose response, cytotoxicity control, 24 h, cherry-picked samples (AID 504726).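 Note: potency for cytotoxicity as loss of luminescence signal.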 The series is classed as functional, cell-based. The conditions noted are these: Homo sapiens.
The target of series [8] is Beta-lactamase (Pseudomonas aeruginosa, UniProt Q79MP6).
For series [9], the target named is Beta-lactamase (Salmonella choleraesuis (strain SC-B67), UniProt Q5J463).
Series [10] in a line: cytotoxicity in MIN6 insulinoma cells, dose response, cytotoxicity control, cell-based, mouse insulinoma (AID 2122).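 Note: confirmatory high-throughput counterscreen run to flag cytotoxic compounds; mouse MIN-6 beta cells carrying an insulin promoter eGFP reporter.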 The class given is functional.
Series [11] in a line: insulin promoter down-regulators in MIN6 cells, imaging, high-content screening, mouse beta cells (AID 1628). The class given is functional.
Series [12] addresses Cytochrome P450 2C19 (Homo sapiens, UniProt P33261). The series is described as follows: Cytochrome panel assay with activity outcomes. Panel member name: p450-cyp2c19 Compounds with AC50 equal or less than 10 uM are considered active. The class given is functional. Conditions: read-out: AC50.
Series [13] concerns the target Cytochrome P450 2D6 (Homo sapiens, UniProt P10635).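 Note: CYP2D6 member of a cytochrome P450 panel assay.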
Series [14] has as its target Exodeoxyribonuclease V (Escherichia coli (strain K12), UniProt P04993+P07648+P08394). Briefly: E. coli RecBCD inhibitors, dose response, counter-screen for AddAB inhibitor project, absorbance, V66 E. coli, mutant T4 phage (AID 492957). The series is classed as functional, cell-based, Escherichia coli str. K-12 substr. MG1655. (In general: The purpose of a counterscreen is to sort out artefacts and off-target activity.)

Series [15] can be described thus: human group III sPLA2 inhibitors, dose response, biochemical, QFRET, IC50 (AID 743457).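 Note: green fluorescence rise as the enzyme cleaves BODIPY PC-A2 in liposomes; potency for inhibition of the enzyme.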
Series [16] deals with Nonstructural protein 1 (Influenza A virus, UniProt Q194T2). The class given is functional, Influenza A virus (A/California/07/2009(H1N1)).
Series [17] in a line: Counterscreen for AddAB inhibitors: absorbance-based bacterial cell-based high throughput dose response assay for inhibitors of bacterial viability. [Related pubchem assays (depositor defined):AID435030, AID449728, AID449731, AID488942, AID488955, AID488956]. The series is classed as functional.
Series [18] deals with T2, Cytochrome P450 1A2 (Homo sapiens, UniProt P05177).
T2 sequence (P05177 whole entry): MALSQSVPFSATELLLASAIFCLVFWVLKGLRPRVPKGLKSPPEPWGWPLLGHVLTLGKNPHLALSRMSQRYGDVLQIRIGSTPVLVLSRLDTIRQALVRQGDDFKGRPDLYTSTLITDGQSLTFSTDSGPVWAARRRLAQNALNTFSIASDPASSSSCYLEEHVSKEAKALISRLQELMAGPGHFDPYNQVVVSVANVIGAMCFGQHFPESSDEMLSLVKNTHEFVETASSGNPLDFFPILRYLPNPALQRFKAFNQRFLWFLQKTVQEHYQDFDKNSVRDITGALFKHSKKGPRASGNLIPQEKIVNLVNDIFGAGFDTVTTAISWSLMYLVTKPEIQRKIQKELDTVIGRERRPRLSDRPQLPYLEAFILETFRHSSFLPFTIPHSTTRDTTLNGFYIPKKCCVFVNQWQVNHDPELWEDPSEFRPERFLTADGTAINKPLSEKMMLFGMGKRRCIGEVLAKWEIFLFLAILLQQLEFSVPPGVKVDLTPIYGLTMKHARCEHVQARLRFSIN

For series [19], the target named is T3, Protein skinhead-1 (Caenorhabditis elegans, UniProt P34707).
T3 sequence (P34707 whole entry): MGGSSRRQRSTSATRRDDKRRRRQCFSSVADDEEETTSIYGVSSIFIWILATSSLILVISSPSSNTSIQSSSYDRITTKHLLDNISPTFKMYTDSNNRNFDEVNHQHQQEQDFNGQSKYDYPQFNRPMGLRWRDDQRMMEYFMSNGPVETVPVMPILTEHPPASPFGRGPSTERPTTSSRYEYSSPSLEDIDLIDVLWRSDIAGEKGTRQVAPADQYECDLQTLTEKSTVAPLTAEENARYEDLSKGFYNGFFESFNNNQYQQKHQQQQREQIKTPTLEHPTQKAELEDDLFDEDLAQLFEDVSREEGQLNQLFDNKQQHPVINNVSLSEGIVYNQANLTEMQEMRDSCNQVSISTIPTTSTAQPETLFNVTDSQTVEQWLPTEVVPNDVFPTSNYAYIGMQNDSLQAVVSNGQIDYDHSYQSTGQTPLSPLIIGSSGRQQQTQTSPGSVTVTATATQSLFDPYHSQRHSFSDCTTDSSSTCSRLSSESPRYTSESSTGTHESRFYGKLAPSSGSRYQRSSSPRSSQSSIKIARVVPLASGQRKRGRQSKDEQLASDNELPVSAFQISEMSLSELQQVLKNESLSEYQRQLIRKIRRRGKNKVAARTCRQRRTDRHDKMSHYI
The class given is functional.

In series [20] the target is T4, fMet-Leu-Phe receptor (Homo sapiens, UniProt P21462).
T4 sequence (P21462 whole entry): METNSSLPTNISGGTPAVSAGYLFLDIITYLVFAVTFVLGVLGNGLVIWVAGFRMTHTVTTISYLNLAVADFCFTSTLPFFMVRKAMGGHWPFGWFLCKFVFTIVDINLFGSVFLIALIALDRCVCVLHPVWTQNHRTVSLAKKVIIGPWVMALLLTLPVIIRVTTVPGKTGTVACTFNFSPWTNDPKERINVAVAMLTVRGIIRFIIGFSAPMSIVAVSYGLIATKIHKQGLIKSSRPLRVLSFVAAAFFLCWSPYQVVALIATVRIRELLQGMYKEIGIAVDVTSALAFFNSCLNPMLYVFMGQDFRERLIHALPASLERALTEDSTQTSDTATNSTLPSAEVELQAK
Briefly: FPR ligands, dose response (AID 519). The series is classed as functional.

Series [21] has as its target Hexokinase (Trypanosoma brucei, UniProt Q38C41). The series is described as follows: Confirmation assay for inhibitors of Trypanosoma brucei hexokinase 1-Analogue-first series. [Related pubchem assays (depositor defined):AID1430, AID1632, AID2516, AID2560, AID2579, AID2600, AID449725, AID492951]. The class given is functional.
Series [22] addresses Phosphomannomutase 2 (Homo sapiens, UniProt O15305). The series is described as follows: Counter screen SAR assay for PMM2 inhibitors via a fluorescence intensity assay. [Related pubchem assays (depositor defined):AID1545, AID1574].
Series [23] has as its target T5, Mannose-6-phosphate isomerase (Homo sapiens, UniProt P34949).
T5 sequence (P34949 whole entry): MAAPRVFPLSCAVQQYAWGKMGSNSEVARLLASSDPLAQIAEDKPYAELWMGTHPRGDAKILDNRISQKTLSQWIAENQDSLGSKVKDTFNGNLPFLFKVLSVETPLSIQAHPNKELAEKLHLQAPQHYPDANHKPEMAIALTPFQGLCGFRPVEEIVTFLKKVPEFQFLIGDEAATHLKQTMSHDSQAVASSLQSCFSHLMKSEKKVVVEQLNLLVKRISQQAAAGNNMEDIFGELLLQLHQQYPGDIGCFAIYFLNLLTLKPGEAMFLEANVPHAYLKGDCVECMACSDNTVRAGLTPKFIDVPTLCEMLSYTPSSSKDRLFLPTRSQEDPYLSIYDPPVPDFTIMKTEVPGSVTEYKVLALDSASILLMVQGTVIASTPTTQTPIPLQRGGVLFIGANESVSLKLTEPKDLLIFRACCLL
The series is described as follows: PMI enzyme inhibitors, confirmation, biochemical, fluorescence intensity (AID 1535).

Series [24] concerns the target Phosphoethanolamine/phosphocholine phosphatase (Homo sapiens, UniProt Q8TCT1). Briefly: SAR assay for compounds that inhibit PHOSPHO1. [Related pubchem assays (depositor defined):AID1545, AID1565, AID1574].

Calls of active or inactive are those of the source.

Cytochrome P450 2D6, sequence (P10635 whole entry): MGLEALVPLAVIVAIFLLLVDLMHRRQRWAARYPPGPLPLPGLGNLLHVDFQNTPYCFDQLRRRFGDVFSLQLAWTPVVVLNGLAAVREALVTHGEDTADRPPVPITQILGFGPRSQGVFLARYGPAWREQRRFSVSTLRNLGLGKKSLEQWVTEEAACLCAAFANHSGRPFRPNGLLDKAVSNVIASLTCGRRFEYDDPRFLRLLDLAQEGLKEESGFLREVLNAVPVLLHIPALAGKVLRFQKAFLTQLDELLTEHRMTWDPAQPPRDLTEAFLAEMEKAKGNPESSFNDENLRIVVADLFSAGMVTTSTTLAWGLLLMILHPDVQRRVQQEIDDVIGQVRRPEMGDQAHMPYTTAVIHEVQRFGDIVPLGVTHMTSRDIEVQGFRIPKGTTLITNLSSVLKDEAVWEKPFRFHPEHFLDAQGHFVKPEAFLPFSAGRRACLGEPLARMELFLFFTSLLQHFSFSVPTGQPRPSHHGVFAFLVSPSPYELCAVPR
Hexokinase, sequence (Q38C41 whole entry): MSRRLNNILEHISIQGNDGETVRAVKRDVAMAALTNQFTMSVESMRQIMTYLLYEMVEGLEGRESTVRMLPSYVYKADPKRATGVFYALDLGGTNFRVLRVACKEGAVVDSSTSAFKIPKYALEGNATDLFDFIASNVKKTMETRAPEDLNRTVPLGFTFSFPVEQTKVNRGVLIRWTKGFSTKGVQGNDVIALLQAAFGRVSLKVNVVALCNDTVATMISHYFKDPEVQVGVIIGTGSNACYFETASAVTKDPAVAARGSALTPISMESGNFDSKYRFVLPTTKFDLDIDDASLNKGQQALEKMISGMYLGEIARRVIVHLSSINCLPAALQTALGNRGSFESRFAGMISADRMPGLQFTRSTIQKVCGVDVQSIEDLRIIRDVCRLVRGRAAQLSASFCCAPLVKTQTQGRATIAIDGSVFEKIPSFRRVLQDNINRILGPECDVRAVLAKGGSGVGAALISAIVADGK
Phosphoethanolamine/phosphocholine phosphatase, sequence (Q8TCT1 whole entry): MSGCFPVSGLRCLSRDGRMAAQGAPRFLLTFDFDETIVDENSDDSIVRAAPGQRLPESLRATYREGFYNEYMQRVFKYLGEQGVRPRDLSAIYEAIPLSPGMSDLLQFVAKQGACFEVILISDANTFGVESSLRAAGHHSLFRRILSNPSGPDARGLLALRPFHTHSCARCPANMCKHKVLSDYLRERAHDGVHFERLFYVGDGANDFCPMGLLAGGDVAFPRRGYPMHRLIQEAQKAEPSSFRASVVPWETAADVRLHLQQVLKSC
Phosphomannomutase 2, sequence (O15305 whole entry): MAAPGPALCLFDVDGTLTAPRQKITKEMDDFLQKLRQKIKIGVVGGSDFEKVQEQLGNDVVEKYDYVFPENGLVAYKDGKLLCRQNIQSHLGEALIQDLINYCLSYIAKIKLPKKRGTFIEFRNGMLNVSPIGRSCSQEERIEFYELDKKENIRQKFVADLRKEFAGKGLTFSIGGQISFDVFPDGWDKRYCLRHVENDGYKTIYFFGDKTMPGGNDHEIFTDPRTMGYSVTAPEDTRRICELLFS
Beta-lactamase (Pseudomonas aeruginosa, UniProt Q79MP6), sequence (Q79MP6 whole entry): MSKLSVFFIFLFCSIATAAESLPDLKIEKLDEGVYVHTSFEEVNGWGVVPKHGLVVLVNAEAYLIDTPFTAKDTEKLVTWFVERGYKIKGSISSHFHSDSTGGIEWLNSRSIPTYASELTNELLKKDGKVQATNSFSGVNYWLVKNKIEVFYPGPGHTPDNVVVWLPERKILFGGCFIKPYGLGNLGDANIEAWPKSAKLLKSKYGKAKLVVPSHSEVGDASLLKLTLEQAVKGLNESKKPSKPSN
Exodeoxyribonuclease V, sequence (P04993 whole entry): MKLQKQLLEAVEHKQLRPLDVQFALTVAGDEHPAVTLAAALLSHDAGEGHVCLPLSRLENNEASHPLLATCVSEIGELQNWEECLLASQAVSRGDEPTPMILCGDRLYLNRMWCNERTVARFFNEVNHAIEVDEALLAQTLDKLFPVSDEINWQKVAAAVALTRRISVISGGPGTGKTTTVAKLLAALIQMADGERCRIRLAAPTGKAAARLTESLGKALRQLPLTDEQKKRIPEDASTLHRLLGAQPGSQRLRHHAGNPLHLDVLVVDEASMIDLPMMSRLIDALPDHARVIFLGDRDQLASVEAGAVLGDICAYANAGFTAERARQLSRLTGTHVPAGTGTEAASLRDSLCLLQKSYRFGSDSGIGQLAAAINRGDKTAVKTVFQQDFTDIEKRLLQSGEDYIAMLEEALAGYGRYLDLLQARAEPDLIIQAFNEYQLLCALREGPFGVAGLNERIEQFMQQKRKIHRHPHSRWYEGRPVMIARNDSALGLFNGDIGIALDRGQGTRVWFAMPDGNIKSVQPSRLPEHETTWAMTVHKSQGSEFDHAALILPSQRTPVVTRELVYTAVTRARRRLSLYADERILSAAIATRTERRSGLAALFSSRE
Exodeoxyribonuclease V, sequence (P07648 whole entry): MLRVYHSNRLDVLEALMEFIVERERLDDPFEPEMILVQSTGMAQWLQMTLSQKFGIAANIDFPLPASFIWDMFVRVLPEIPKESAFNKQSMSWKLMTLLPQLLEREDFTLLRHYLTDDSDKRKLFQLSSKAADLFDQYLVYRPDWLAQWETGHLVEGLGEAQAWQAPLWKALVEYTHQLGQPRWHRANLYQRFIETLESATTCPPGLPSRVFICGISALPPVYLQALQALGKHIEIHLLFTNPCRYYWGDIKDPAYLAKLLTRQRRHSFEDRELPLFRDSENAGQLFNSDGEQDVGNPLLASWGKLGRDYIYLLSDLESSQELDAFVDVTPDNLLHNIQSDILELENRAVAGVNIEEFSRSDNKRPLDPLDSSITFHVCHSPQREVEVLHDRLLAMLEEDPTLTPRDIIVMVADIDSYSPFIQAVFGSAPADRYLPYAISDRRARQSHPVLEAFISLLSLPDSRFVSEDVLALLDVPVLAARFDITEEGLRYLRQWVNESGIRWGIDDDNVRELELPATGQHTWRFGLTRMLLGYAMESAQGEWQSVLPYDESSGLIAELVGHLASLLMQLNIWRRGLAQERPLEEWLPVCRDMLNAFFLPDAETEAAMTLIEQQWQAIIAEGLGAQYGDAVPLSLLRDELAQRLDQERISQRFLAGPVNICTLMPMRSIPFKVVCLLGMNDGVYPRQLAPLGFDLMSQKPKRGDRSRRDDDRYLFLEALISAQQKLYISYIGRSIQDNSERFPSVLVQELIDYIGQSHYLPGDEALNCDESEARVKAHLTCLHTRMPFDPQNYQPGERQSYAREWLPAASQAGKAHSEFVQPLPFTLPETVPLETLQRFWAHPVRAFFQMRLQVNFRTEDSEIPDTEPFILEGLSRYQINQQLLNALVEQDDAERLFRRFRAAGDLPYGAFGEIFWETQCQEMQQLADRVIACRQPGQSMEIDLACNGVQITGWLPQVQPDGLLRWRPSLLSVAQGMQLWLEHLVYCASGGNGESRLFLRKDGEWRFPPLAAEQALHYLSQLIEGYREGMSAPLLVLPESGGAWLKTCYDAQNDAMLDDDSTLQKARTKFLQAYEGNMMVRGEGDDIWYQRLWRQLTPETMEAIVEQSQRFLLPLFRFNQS
Exodeoxyribonuclease V, sequence (P08394 whole entry): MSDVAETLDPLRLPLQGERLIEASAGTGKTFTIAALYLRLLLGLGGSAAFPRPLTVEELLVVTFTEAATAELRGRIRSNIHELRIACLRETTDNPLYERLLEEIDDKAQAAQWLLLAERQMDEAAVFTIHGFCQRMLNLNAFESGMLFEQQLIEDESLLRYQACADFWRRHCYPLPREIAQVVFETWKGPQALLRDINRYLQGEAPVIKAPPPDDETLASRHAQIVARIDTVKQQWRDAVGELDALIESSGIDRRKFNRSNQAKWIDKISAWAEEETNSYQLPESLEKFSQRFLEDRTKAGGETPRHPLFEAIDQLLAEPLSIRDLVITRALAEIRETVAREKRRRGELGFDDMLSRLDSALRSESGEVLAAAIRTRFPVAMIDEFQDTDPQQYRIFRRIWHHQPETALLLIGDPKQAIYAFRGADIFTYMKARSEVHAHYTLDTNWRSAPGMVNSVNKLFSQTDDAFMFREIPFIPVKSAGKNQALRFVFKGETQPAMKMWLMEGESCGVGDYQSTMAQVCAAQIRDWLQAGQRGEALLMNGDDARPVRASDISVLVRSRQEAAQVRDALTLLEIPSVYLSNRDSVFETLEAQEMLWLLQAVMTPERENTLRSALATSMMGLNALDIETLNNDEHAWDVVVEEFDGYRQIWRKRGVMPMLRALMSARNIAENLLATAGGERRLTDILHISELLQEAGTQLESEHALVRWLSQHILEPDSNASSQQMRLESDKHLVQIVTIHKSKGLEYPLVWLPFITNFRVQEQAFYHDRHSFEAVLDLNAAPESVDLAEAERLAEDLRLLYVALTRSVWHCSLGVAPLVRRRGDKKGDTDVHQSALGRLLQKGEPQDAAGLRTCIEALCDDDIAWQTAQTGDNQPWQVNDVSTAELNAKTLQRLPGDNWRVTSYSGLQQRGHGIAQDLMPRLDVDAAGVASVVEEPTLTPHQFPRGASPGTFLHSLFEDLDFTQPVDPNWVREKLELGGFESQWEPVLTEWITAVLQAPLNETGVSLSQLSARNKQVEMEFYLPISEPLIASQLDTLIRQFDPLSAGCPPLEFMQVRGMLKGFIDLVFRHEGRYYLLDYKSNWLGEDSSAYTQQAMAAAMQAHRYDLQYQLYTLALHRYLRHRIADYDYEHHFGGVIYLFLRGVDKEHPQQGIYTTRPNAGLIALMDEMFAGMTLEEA
Beta-lactamase (Salmonella choleraesuis (strain SC-B67), UniProt Q5J463), sequence (Q5J463 whole entry): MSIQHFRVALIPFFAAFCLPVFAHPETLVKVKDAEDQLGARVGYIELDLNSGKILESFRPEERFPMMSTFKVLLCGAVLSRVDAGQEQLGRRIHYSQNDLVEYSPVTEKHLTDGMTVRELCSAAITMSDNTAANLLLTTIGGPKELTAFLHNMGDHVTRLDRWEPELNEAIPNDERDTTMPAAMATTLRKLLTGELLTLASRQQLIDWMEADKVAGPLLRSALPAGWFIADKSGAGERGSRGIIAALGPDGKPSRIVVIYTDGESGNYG

What is called AC50 is the concentration at which the activity in the assay is half-maximal. The EC50 is the concentration giving half of the maximal effect. What is called IC50 is the concentration that gives 50% inhibition. On to `COCCCNc1c(O)nc2cccc3c2c1-c1ccccc1C3=O`, for which the AC50 is 1.57 µM (active) in series [1], 0.526 µM (active) in series [3] and 66.1 µM (active) in series [7]. Moreover, the EC50 in series [2], in series [4] and in [6] was > 54.7 µM (inactive) throughout. Also, the figures for the IC50 in [5], in [8] and in series [9] were > 89.2 µM (inactive), 2.11 µM (active) and 0.89 µM (active), respectively.

On to `COc1cc(-c2nnc3sc(-c4cccs4)nn23)cc(OC)c1OC`, for which the IC50 was 13.9 µM (inactive) in series [10] and 1.64 µM (active) in [11].

As to `Cc1ccc(OCC(=O)NNC(=O)CCC(=O)NCc2ccccc2)cc1`, the figures for the AC50 in [12] and in series [13] were 0.00562 µM (inconclusive) and “inconclusive”, respectively.

With `CCCOc1ccccc1N=C(N)Nc1nc(C)cc(C)n1`, the results for the half-maximal inhibitory concentration (IC50) in [10] and in series [11] were 2.56 µM (active) and 1.29 µM (active), respectively.

Take `O=C(NC(=S)NNC(=O)c1ccccc1O)c1cccs1`: the IC50 was 79.9 µM (inactive) in [14], > 122 µM (inactive) in series [15], 10.6 µM (active) in series [16] and 66.1 µM (inactive) in series [17].

What is called Ki is the dissociation constant of the complex between target and ligand, obtained from inhibition or displacement. With `Cc1ccc(C)c(-n2c(CNC(=O)c3ccco3)nnc2SCC(=O)N2CCc3ccccc32)c1`, the concentration at half-maximal activity (AC50) in series [18] is 2.51 µM (inconclusive); in [13], “inconclusive”. Further, the IC50 in series [19] was > 100 µM (inactive). Further, the Ki in series [20] was > 66.7 µM (inactive).

With `COc1ccc(C(=O)Nc2cc(Cl)ccc2[N+](=O)[O-])cc1`, the IC50 in series [21] was > 25 µM (inactive).

As for `N#Cc1ccc(NC(=O)Cn2sc3ccccc3c2=O)cc1`, the half-maximal inhibitory concentration (IC50) in series [21] was 6.97 µM (active).

Turning to `CN(C)c1ccc(-n2sc3ccccc3c2=O)cc1`, the IC50 is > 100 µM (inactive) in series [22], 21.4 µM (active) in series [23] and 11.4 µM (inactive) in [24].

Turning to `O=c1c2ccccc2sn1-c1cccc(S(=O)(=O)Nc2ccc(Cl)cc2)c1`, the values for the half-inhibitory concentration (IC50) in [22], in [23] and in series [24] were 9.44 µM (active), 1.59 µM (active) and 8.2 µM (inactive), respectively.
